# Source: patent US20230067811A1, “MODULATING LYMPHATIC VESSELS IN NEUROLOGICAL DISEASE” (University of Virginia Patent Foundation, priority 2020, published 2023)
# Assays:
# WT mice = assay: In vivo measurement of CSF outflow into dCLNs (fluorescent microspheres); design: species or system mouse; conditions: 1 week after photoablation
# Description: Adult 2 months-old WT mice were injected (i.c.m.) with Visudyne (5 μL) followed by a transcranial photoconversion step (Vis./photo.) to ablate meningeal lymphatic vessels. Control mice were injected with Visudyne without photoconversion (Vis.). One week later, mice were injected with 5 μL of a suspension of fluorescent microspheres (1 μm in diameter) into the CSF and 15 minutes later the lymphatic vessel afferent to the deep cervical lymph node (dCLN) was imaged by in vivo stereomicroscopy. Representative images of skull cap show microspheres and lymphatic vessels stained for LYVE-1 around the confluence of sinuses (COS) and transverse sinus (TS) at the dorsal brain meninges or around the sigmoid (SS) and petrosquamosal (PSS) sinuses at the basal brain meninges (scale bars, 500 μm). […]
# In vivo measurement of CSF outflow into dCLNs. […] Fluorescent microsphere drainage was analyzed in FIJI software by drawing a line demarcating the draining lymphatic vessel afferent to the dCLN and manually counting the beads passing the line by a blinded experimenter. […]
# 5×FAD mice = assay: ABETA Mab1 i.p. in 5×FAD mice with intact or ablated meningeal lymphatics: Aβ plaques, LAMP1, IBA1, CD68, fibrinogen; type: in vivo, mouse
# Description: Upon recovery, mice received intraperitoneal (i.p.) injections of ABETA Mab1 (a murine antibody against Aβ protofibrils) or the control murine IgG (mIgG) antibodies, each at a dose of 40 mg/kg. Antibodies were injected weekly for a total of four weeks. Additional steps of meningeal lymphatic vessel ablation or control interventions were followed by four weekly injections with antibodies. Mice were tested in the open field and Morris water maze.
# In another set of experiment 5×FAD mice of 3-3.5 months-old were injected (i.p.) with anti-Abeta antibody (ABETA Mab1) or mIgG (each at 40 mg/kg) following the exact same treatment regimen (FIG. 10A).
# Treatments with anti-Aβ monoclonal antibodies. ABETA Mab1 and respective control IgG2a (mIgG) antibodies were manufactured by Absolute Antibody Ltd., Oxford Centre for Innovation, United Kingdom. Anti-Aβ monoclonal antibodies and respective mIgG controls were administered via intraperitoneal (i.p.) injection, at a dose of 40 mg/kg. Antibody dosages are also specified in the main text, illustrated in schemes and in each figure legend. Alternatively, ABETA Mab1 and mIgG antibodies were injected directly into the CSF, following the methodology described in the next section.
# Meningeal lymphatic vessel ablation. Selective ablation of the meningeal lymphatic vessels was achieved by injection of Visudyne (Vis.) and consecutive transcranial photoconversion (photo.) steps following previously described methodology and regimens (Da Mesquita, S. et al. Functional aspects of meningeal lymphatics in ageing and Alzheimer's disease. Nature 560, 185-191, (2018); Louveau, A. et al. CNS lymphatic drainage and neuroinflammation are regulated by meningeal lymphatic vasculature. Nat Neurosci 21, 1380-1391, (2018)). Visudyne was reconstituted following manufacturer instructions, aliquoted and kept at −20° C. until further used. […] Each spot was irradiated with a light dose of 50 J/cm^2 at an intensity of 600 mW/cm^2 for a total of 83 s. […]
# Immunohistochemistry, imaging and quantifications. […]
# [1] = 5×FAD mice with reduced meningeal lymphatic drainage
substance,measurement,setting,value
verteporfin [Visudyne],CSF drainage (microspheres from the CSF into the dCLNs),WT mice,significant reduction
same,brain coverage by LAMP1+ dystrophic neurites,5×FAD mice; 5×FAD mice with dysfunctional versus intact meningeal lymphatics,significantly increased
same,fibrinogen levels in the brain,5×FAD mice; [1],increased fibrinogen levels
same,"myeloid cell activation (IBA1+ coverage, peri-Aβ plaque IBA1+ cells, CD68 on IBA1+ cells)",5×FAD mice; [1],aberrant activation of myeloid cells
